Measured values reported in patent US10421964B2, “UNA oligomers and compositions for treating amyloidosis” (Arcturus Therapeutics, Inc., priority 2015, dated 2019).
pIC50: −log10 of the molar value. [UNA] = unlocked nucleic acid; m = 2'-O-methyl; r = 2'-OH (RNA)

Legend:
[1] = test system: V30M gene reporter variant (nucleotide sequence 264 to 304 of human TTR containing the point mutation at position 284); experiment: PSICHECK reporter assay against V30M gene reporter variant; format: cell-based; settings: for selectivity against V30M over V30V: IC50 against V30V over IC50 against V30M; for pIC50: V30M gene reporter variant; for effectiveness against V30M compared with V30V: V30V and V30M gene reporter variants
Procedure: (§1) Conventional siRNAs that are complementary to the […] mRNA were tiled around position 284. […] Positions 5, 9, 14 and 15 appear to be more accessible to silencing than other positions. […] Four conventional siRNA variations, namely V30M-P5, V30M-P9, V30M-P14, and V30M-P15, were prepared.
(§2) Thus, the selectivity of the conventional siRNAs against V30M over V30V was no more than 5.6.

[2] = test system: V30V gene reporter variant (nucleotide sequence 264 to 304 of human TTR without the point mutation at position 284); experiment: PSICHECK reporter assay against V30V gene reporter variant; format: cell-based
Procedure: as §1, §2

Transthyretin TTR mRNA = experiment: Knockdown of TTR protein in plasma of Cynomolgus monkeys after single IV dose of liposomal UNA oligomer (LC-MS/MS SRM); format: in vivo, Cynomolgus monkeys (Macaca fascicularis)
Procedure: A single-dose, pharmacokinetic and pharmacodynamic study of liposomally formulated UNA Oligomers targeting transthyretin (TTR) mRNA following intravenous infusion in Cynomolgus monkeys was performed.
Cynomolgus monkeys (Macaca fascicularis) were selected for this study because the TTR mRNA of Cynomolgus monkeys is homologous to human TTR mRNA, making them a good model for screening the potency of UNA oligomers targeting to TTR mRNA.
In this study, the knockdown of Transthyretin protein was evaluated as a result of treatment with UNA oligomers targeting Transthyretin TTR mRNA, based on SEQ ID NOs:46/86, 59/99, and 60/100, delivered in a liposomal formulation to male Cynomolgus monkeys. Measurements were made following a single intravenous (IV) dose administration. TTR protein concentration in plasma samples was assessed by LC-MS/MS at various time points.
Animals in Groups 1 through 8 were administered the test articles on Day 1 at 0.3 mg/kg, dose volume 6.25 mL/kg, concentration 0.048 mg/mL. Doses were administered as a 15-minute intravenous (IV) infusion, +1 minute, using a pump and disposable syringe.
For each animal, infusion start and end times were recorded; and subsequent sample collection target times were determined based on infusion end time (t=0). All blood specimens, approximately 1 mL, were collected by venipuncture from a peripheral vein from restrained, conscious animals.
The Monkey TTR SRM assay was used, which is a high throughput absolute protein quantitation assay using Selected Reaction Monitoring (SRM) technology platform. In a single SRM assay, the panel can multiplex up to 200 proteins. The assay was performed on a targeted absolute protein quantitation platform, where the key technology was SRM, sometimes also referred to as Multiple Reaction Monitoring (MRM). In a triple-quadrupole (QQQ) mass spectrometer, SRM/MRM is a tandem selection process where selecting peptides by precursor m/z is followed by selecting fragmentations (transitions) of the targeted peptide.

For “ĞCCAUGCAUGUGUUCAGAAŨmU / UUCUGÃACACAUGCAUGGCŨmU (chain 1 GCCAUGCAUGUGUUCAGAAUU; chain 2 UUCUGAACACAUGCAUGGCUU; siRNA; chain 1: sugars from the 5' end [UNA]1 r18 [UNA]1 m1, backbone not given here; chain 2: sugars from the 5' end r5 [UNA]1 r13 [UNA]1 m1, backbone not given here) [P16U6]”, the “activity compared to the conventional siRNA, each targeted to V30M” value [1] was “superior to the activity of the conventional siRNA V30M-P16”, the “selectivity against V30M over V30V compared to the conventional siRNA” value (“selectivity … to the conventional siRNA” for short) [1] was “substantially greater than for the conventional siRNA V30M-P16” and the “silencing V30M TTR” value [1] was “effective in silencing V30M TTR”. For the same substance, the “superiority of selectivity over the selectivity of 5.6 of the conventional siRNA” value [1] was 4 fold, the “selectivity against V30M over V30V” value [1] was 23 and the pIC50 [1] was 10.03. For the same substance, the “effectiveness against V30M compared with V30V” value [1] was “more effective against V30M than V30V” and the pIC50 [2] was 8.67.

In the case of “ĞCCAUGCAUGUGUUCAGAAŨmU / UUCUGAACACAUGCAUĞGCŨmU (chain 1 GCCAUGCAUGUGUUCAGAAUU; chain 2 UUCUGAACACAUGCAUGGCUU; siRNA; chain 1: sugars from the 5' end [UNA]1 r18 [UNA]1 m1, backbone not given here; chain 2: sugars from the 5' end r16 [UNA]1 r2 [UNA]1 m1, backbone not given here) [P16U17]”, the “silencing V30M TTR” value [1] was “effective in silencing V30M TTR”.

For “ŨAACCAAGAGUAUUCCAUUŨmU / AAUGGAAUACUCUUGGUUAŨmU (chain 1 UAACCAAGAGUAUUCCAUUUU; chain 2 AAUGGAAUACUCUUGGUUAUU; siRNA; chain 1: sugars from the 5' end [UNA]1 r18 [UNA]1 m1, backbone not given here; chain 2: sugars from the 5' end r19 [UNA]1 m1, backbone not given here) [SEQ ID NO:60/100]”, the “knockdown of TTR” value (Transthyretin TTR mRNA; at 20 days, single IV dose 0.3 mg/kg, primates) was “over 91%”, the “knockdown of TTR” value (Transthyretin TTR mRNA; continuous duration of more than 20 days, single IV dose 0.3 mg/kg, primates) was “more than 70%” and the TTR protein levels (Transthyretin TTR mRNA; continuous duration of more than one month (30 days), single injection, primates) was “below 50%”. For the same substance, the “knockdown of Transthyretin protein in vivo” value (Transthyretin TTR mRNA; liposomal formulation, male Cynomolgus monkeys, single IV dose 0.3 mg/kg, plasma) was “achieved”.

For “ĞGCCAUGCAUGUGUUCAGAŨmU / UCUGAAĈACAUGCAUGGCCŨmU (chain 1 GGCCAUGCAUGUGUUCAGAUU; chain 2 UCUGAACACAUGCAUGGCCUU; siRNA; chain 1: sugars from the 5' end [UNA]1 r18 [UNA]1 m1, backbone not given here; chain 2: sugars from the 5' end r6 [UNA]1 r12 [UNA]1 m1, backbone not given here) [P15U7]”, the “selectivity … to the conventional siRNA” value [1] was “substantially greater than for the conventional siRNA V30M-P15”, the “silencing V30M TTR” value [1] was “effective in silencing V30M TTR” and the “effectiveness against V30M compared with V30V” value [1] was “more effective against V30M than V30V”.

In the case of “ĞGCCAUGCAUGUGUUCAGAŨmU / UCUGAACACAUGCAŨGGCCŨmU (chain 1 GGCCAUGCAUGUGUUCAGAUU; chain 2 UCUGAACACAUGCAUGGCCUU; siRNA; chain 1: sugars from the 5' end [UNA]1 r18 [UNA]1 m1, backbone not given here; chain 2: sugars from the 5' end r14 [UNA]1 r4 [UNA]1 m1, backbone not given here) [P15U15]”, the “selectivity … to the conventional siRNA” value [1] was “substantially greater than for the conventional siRNA V30M-P15”, the “silencing V30M TTR” value [1] was “effective in silencing V30M TTR” and the “effectiveness against V30M compared with V30V” value [1] was “more effective against V30M than V30V”.

For “ĞGCCAUGCAUGUGUUCAGAŨmU / UCUGAACACAUGCÃUGGCCŨmU (chain 1 GGCCAUGCAUGUGUUCAGAUU; chain 2 UCUGAACACAUGCAUGGCCUU; siRNA; chain 1: sugars from the 5' end [UNA]1 r18 [UNA]1 m1, backbone not given here; chain 2: sugars from the 5' end r13 [UNA]1 r5 [UNA]1 m1, backbone not given here) [P15U14]”, the “silencing V30M TTR” value [1] was “effective in silencing V30M TTR”.

“ĞCCAUGCAUGUGUUCAGAAŨmU / UUCUGAACACAUGCÃUGGCŨmU (chain 1 GCCAUGCAUGUGUUCAGAAUU; chain 2 UUCUGAACACAUGCAUGGCUU; siRNA; chain 1: sugars from the 5' end [UNA]1 r18 [UNA]1 m1, backbone not given here; chain 2: sugars from the 5' end r14 [UNA]1 r4 [UNA]1 m1, backbone not given here) [P16U15]” was tested, and the “activity compared to the conventional siRNA, each targeted to V30M” value [1] was “superior to the activity of the conventional siRNA V30M-P16”, the “selectivity … to the conventional siRNA” value [1] was “substantially greater than for the conventional siRNA V30M-P16” and the “silencing V30M TTR” value [1] was “effective in silencing V30M TTR”. For the same substance, the “effectiveness against V30M compared with V30V” value [1] was “more effective against V30M than V30V”.

For “ĞCCAUGCAUGUGUUCAGAAŨmU / UUCUGAÃCACAUGCAUGGCŨmU (chain 1 GCCAUGCAUGUGUUCAGAAUU; chain 2 UUCUGAACACAUGCAUGGCUU; siRNA; chain 1: sugars from the 5' end [UNA]1 r18 [UNA]1 m1, backbone not given here; chain 2: sugars from the 5' end r6 [UNA]1 r12 [UNA]1 m1, backbone not given here) [P16U7]”, the “activity compared to the conventional siRNA, each targeted to V30M” value [1] was “superior to the activity of the conventional siRNA V30M-P16”, the “selectivity … to the conventional siRNA” value [1] was “substantially greater than for the conventional siRNA V30M-P16” and the “silencing V30M TTR” value [1] was “effective in silencing V30M TTR”. The “effectiveness against V30M compared with V30V” value [1] was “more effective against V30M than V30V”.

“ĞGCCAUGCAUGUGUUCAGAŨmU / UCUGAACACAUGCAUĞGCCŨmU (chain 1 GGCCAUGCAUGUGUUCAGAUU; chain 2 UCUGAACACAUGCAUGGCCUU; siRNA; chain 1: sugars from the 5' end [UNA]1 r18 [UNA]1 m1, backbone not given here; chain 2: sugars from the 5' end r15 [UNA]1 r3 [UNA]1 m1, backbone not given here) [P15U16]” was tested, and the “selectivity … to the conventional siRNA” value [1] was “substantially greater than for the conventional siRNA V30M-P15”, the “silencing V30M TTR” value [1] was “effective in silencing V30M TTR” and the “effectiveness against V30M compared with V30V” value [1] was “more effective against V30M than V30V”.

In the case of “ĞGCCAUGCAUGUGUUCAGAŨmU / UCUGAÃCACAUGCAUGGCCŨmU (chain 1 GGCCAUGCAUGUGUUCAGAUU; chain 2 UCUGAACACAUGCAUGGCCUU; siRNA; chain 1: sugars from the 5' end [UNA]1 r18 [UNA]1 m1, backbone not given here; chain 2: sugars from the 5' end r5 [UNA]1 r13 [UNA]1 m1, backbone not given here) [P15U6]”, the “activity compared to the conventional siRNA, each targeted to V30M” value [1] was “superior to the activity of the conventional siRNA V30M-P15”, the “selectivity … to the conventional siRNA” value [1] was “substantially greater than for the conventional siRNA V30M-P15” and the “silencing V30M TTR” value [1] was “effective in silencing V30M TTR”. For the same substance, the “superiority of selectivity over the selectivity of 5.6 of the conventional siRNA” value [1] was 4 fold, the “selectivity against V30M over V30V” value [1] was 24 and the pIC50 [1] was 10.42. The “effectiveness against V30M compared with V30V” value [1] was “more effective against V30M than V30V” and the pIC50 [2] was 9.04.

In the case of “ĞCCAUGCAUGUGUUCAGAAŨmU / UUCUGAACACAUGCAŨGGCŨmU (chain 1 GCCAUGCAUGUGUUCAGAAUU; chain 2 UUCUGAACACAUGCAUGGCUU; siRNA; chain 1: sugars from the 5' end [UNA]1 r18 [UNA]1 m1, backbone not given here; chain 2: sugars from the 5' end r15 [UNA]1 r3 [UNA]1 m1, backbone not given here) [P16U16]”, the “activity compared to the conventional siRNA, each targeted to V30M” value [1] was “superior to the activity of the conventional siRNA V30M-P16”, the “selectivity … to the conventional siRNA” value [1] was “substantially greater than for the conventional siRNA V30M-P16” and the “silencing V30M TTR” value [1] was “effective in silencing V30M TTR”. For the same substance, the “effectiveness against V30M compared with V30V” value [1] was “more effective against V30M than V30V”.
